We go through 1 compound from BindingDB's records for doi:10.7270/Q2J964TC (Burnham Center for Chemical Genomics, 2010).

pIC50: −log10 of the molar value.

One may read the pIC50 as the negative decadic logarithm of the IC50, by convention in mol/L. Low readings indicate a high IC50, high ones a low IC50.

This test has as its target T1, Mannose-6-phosphate isomerase (Homo sapiens, UniProt P34949).
T1 sequence (P34949 whole entry): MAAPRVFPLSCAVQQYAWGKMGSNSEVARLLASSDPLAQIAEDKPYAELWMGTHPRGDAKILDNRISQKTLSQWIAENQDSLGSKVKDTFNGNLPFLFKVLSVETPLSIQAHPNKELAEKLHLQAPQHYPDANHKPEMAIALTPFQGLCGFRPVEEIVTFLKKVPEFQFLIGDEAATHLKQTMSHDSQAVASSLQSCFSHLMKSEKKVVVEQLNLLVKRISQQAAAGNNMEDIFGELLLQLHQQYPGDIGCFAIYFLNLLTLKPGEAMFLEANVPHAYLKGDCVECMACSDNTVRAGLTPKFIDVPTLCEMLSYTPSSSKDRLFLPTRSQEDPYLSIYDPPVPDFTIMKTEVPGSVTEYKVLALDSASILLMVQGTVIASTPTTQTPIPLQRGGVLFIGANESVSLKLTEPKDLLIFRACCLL
In words: PMI enzyme inhibitors, confirmation, biochemical, fluorescence intensity (AID 1535).

In the case of `Oc1c(-c2ccccc2)sc2ccccc12` [2-phenyl-1-benzothiophen-3-one], the negative-log IC50 (pIC50) was < 4.00.
